Assay results published in patent publication US4461761A, “Oligomers of compounds of the muramyl-peptide type and medicaments containing them” (priority 1978, dated 1984).

Assays:
[1] = tested on: Klebsiella pneumoniae; experiment: Anti-Klebsiella pneumoniae activity in the adult mouse; format: in vivo; details: for anti-infectious activity with respect to Klebsiella pneumoniae (in words) / % Protection / Number of mice D + 3 (survivors) / Number of mice D + 5 (survivors) / Number of mice D + 10 (survivors): adult mouse; for anti-infectious activity with respect to Klebsiella pneumoniae (in words): summary of Table 3; for % Protection / Number of mice D + 3 (survivors) / Number of mice D + 5 (survivors) / Number of mice D + 10 (survivors): i.v.
Description: An experimental procedure was studied by CHEDID L. et coll. in "Proc. Natl. Acad. Sci. USA," 1977, 74: 2089, which permits the stimulating effect or not to be observed of substances studied with regard to immune defenses according as they protect or not the mice to which they are injected, the mice being inoculated by a dose of Klebsiella pneumoniae which results in the death of almost all of the controls.
(§1) The testing procedure is described in the article CHEDID L. et coll., Proc. Natl. Acad. Sci. USA, 74:2089.
(§2) It was shown that a dose of about 10^4 Klebsiella pneumoniae, injected by the intramuscular route in mice, results in the gradual death of a considerable part, if not all, of the animals in the week following the inoculation. After 8 days, the survival of the animals was definitely achieved.
The survival of groups of inoculated mice under the above conditions and treated by means of the products according to the invention was followed.
For these tests, hybrid mice (C57B1/6×AKR) FI bred at the PASTEUR INSTITUTE, from strains derived from the CNRS breeding station at ORLEANS, were used.
(§3) The infection by Klebsiella pneumoniae, a strain of the capsular 2, biotype d type, was done from a culture of 16 hours in a medium for pneumococci (No. 53515, PASTEUR INSTITUTE).
(§4) Various treatment conditions and tests have been studied. Thus, the treatment was carried out either 24 hours before the test, or 1 hour after the latter. The influence of the infecting dose and the mode of administration has also been studied. In particular, the protective properties of the products have been determined in the case of an injection of Klebsiella pneumoniae by the intravenous route, which corresponds to a severe infection.
(§5) In the majority of cases, the tests have been carried out on mice aged from 5 to 6 weeks. In one part of the tests, on the other hand, mice 7 days old were used, since the immune responses, in very young subjects are substantially different, and, on the whole, much more difficult to stimulate than those that are observed in adult subjects.
(§6) The products are administered in apyrogenic physiological solution in the proportion of 0.2 ml for intravenous administration to adult mice and 0.05 ml for sub-cutaneous injection to mice 7 days old. The controls received the solution alone.
(§7) The percentage protection indicated corresponds to the difference in percentages of survivors of the treated group with respect to the control group.

[2] = tested on: ovalbumin; experiment: Adjuvant character in emulsion: serum antibodies specific for ovalbumin; format: in vivo, Hartley guinea pigs; details: emulsion with 1 mg ovalbumin, intradermal; product 50 μg in FIA; day 21; μg nitrogen precipitatable by antigen per ml serum
Description: (§8) The tests were carried out on batches of 6 male Hartley guinea pigs of 350 g. The administration was done by intradermal injection into the plantar pad of each of the rear paws. Ovalbumin (constituting the antigen) in the amount of 1 mg is prepared in 0.1 ml of an emulsion of saline isotonic solution, in an oily phase constituted either by the Freund incomplete adjuvant (FIA) or by the complete adjuvant (FCA) formed by the FIA to which is added 0.1 mg of whole Mycobacterium smegmatis cells. The compound according to the invention was administered in the amount of 0.05 mg added in the emulsion containing the FIA.
Twenty-one days after the injection, the animals were bled. On the collected serum, the content of specific antibodies of the ovalbumin was measured by precipitation of the antibody-antigen complex in the equivalence zone. The amount of protein nitrogen contained in the precipitate was estimated by the Folin method. These values express the amount, in micrograms, of nitrogen precipitatable by the antigen, per milliliter of the serum.

[3] = tested on: ovalbumin; experiment: Adjuvant character in emulsion: delayed hypersensitivity cutaneous test; format: in vivo, Hartley guinea pigs; details: emulsion with 1 mg ovalbumin, intradermal; product 50 μg in FIA; challenge day 18, read 48 hours later
Description: as §8
Eighteen days after this immunization, possible delayed hypersensitivity reactions to the antigen were sought by injecting by the intradermal route 0.01 mg of ovalbumin in the side of the animals, and 48 hours later, the reaction of the point of injection was observed. The diameter in millimeters of the reaction thus-caused was measured.

[4] = tested on: bovine serum albumin (BSA); experiment: Adjuvant character in the aqueous phase (anti-BSA antibody titer, passive hemagglutination); format: in vivo, Swiss mice; details: 100 μg adjuvant s.c. with 0.5 mg BSA in isotonic saline; booster day 30; six days after booster; maximum serum dilution agglutinating
Description: Groups of 8 Swiss mice aged two months received, by sub-cutaneous injection (SC), 0.5 mg of antigen constituted by bovine serum albumin (BSA) with 0.1 mg or without the tested substance in an isotonic saline solution. This high dose of antigen, because it is situated at the limit of the paralyzing dose with respect to the immunitary response, results, for this reason, in a weak or zero response to the antigen only in the controls: It constitutes therefore a severe criterion to establish the activity of an adjuvant substance. Thirty days later, the mice received, by the same administrative route, a booster containing 0.1 mg of the same antigen.
The antibody level was determined, six days after the booster, by passive hemagglutination using sheep's red blood corpuscles treated with formalin and covered with the antigen studied according to the method described by A. A. HIRATA and M. W. BRANDISS (J. Immunol., 100, 641-648, 1968).
The antibody titer, represented by the maximum serum dilution agglutinating a given amount of sheep corpuscles, reaches a maximum at the 36th day. The results obtained for various products according to the invention are shown in Table I. By way of comparison, the results obtained with MDP are indicated, on the one hand, and for PAP-MDP, on the other hand.

[5] = tested on: Klebsiella pneumoniae; experiment: Anti-Klebsiella pneumoniae activity in the 7 day old mouse; format: in vivo; details: for % Protection / Number of mice D + 3 (survivors) / Number of mice D + 5 (survivors) / Number of mice D + 10 (survivors): 100 μg
From the text: as §1, §2, §3, §4, §5, §6, §7
The results reported in the following table represent the tests carried out in mice aged 7 days.

[6] = tested on: Listeria monocytogenes; experiment: Anti-Listeria monocytogenes activity in the adult mouse; format: in vivo; details: Listeria i.v. 10^3, treatment D-1, i.v.
Description: Under similar conditions to those of the tests of (4), the influence of the administration of the oligomer of p.aminophenyl-glycoside MDP was determined on the mortality of mice in which a dose of Listeria monocytogenes is administered, known for generating typically an infection of cellular type. As previously, the action of the product according to the invention was compared with that of Corynebacterium granulosum of which the anti-infectious properties are well known in this field. It was also determined, still by way of comparison, the action of Mur-NAc-L-Ala-D-isoGln (MDP).
The treatment of the mice and the inoculation were carried out intravenously. The injected products were in solution or suspension in 0.2 ml of apyrogenic physiological solution. The controls only received the solution.
The dose of Listeria administered was, in all the tests, 1.10^3 units.
The test whose results are given below have been carried out varying the doses of the tested products and the interval of time separating the treatment of inoculation of the Listeria monocytogenes (either 1, or 7 days). The number of surviving mice at the fifth and the tenth day following the inoculation was followed, and the percentage protection determined as for the preceding tests.

[7] = tested on: suprarenalectomized mouse; experiment: Toxicity, intravenous injection in the suprarenalectomized mouse; format: in vivo
From the text: The toxicity of the products according to the invention were studied by parenteral administration in mice. It was observed that the toxic doses were of an order of magnitude very much higher than that of the doses at which these products manifest their activity.
In addition, the activity/toxicity ratio is very favorable in the case of the pol-PAP-MDP, as appears when one considers the results of the tests reported below.

[8] = tested on: Limulus amoebocyte lysate; experiment: Limulus test (endotoxic type activity, gel formation)
Description: To show the absence of activity of the endotoxic type, products according to the invention were subjected to the Limulus test. For this purpose, 0.1 ml of the Limulus amoebocyte lysate preparation (marketed by the MALLINCKRODT Company, at Saint Louis, U.S.A.) was mixed with an equal volume of the tested product at various concentrations in solution in apyrogenic distilled water. The vessels used were also made apyrogenic by dry heating in the oven, at 180° C., for 2 hours.
After incubating the mixture for 20 minutes at 37° C. in tubes, the formation of gel characteristic of the presence of endotoxin was estimated.
A test is positive when the presence of a firm gel is observed which remains adherent to the bottom of the tube when the latter is inverted (technique described by Elin R. J. and Wolff S. M., J. Infect. Dis., 1973, 126: 349).

[9] = infection i.m. 1.5 × 10^4, treatment -24 h, 100 μg
[10] = infection i.v. 1.5 × 10^3, treatment -24 h, 100 μg
[11] = infection i.v. 2.5 × 10^2, treatment -24 h, s.c.
[12] = infection s.c. 10^3, treatment -24, s.c.
[13] = infection i.m. 1.5 × 10^4, treatment +1 h, 10 μg
[14] = infection i.m. 1.5 × 10^4, treatment +1 h, 100 μg
[15] = infection i.m. 1.5 × 10^4, treatment -24 h, 10 μg
[16] = infection i.v. 1.5 × 10^3, treatment -24 h, 10 μg
[17] = infection i.v. 1.5 × 10^5, treatment -24 h, 100 μg

CC(=O)N[C@H]1[C@H](Oc2ccc(N)cc2)O[C@H](CO)[C@@H](O)[C@@H]1O[C@H](C)C(=O)N[C@@H](C)C(=O)N[C@H](CCC(=O)O)C(N)=O [PAP-MDP, β-D-p.aminophenyl glycoside of N-acetyl-muramyl-L-alanyl-D-isoglutamine, reference compound]
anti-infectious activity with respect to Klebsiella pneumoniae (in words) [1]: practically not | % Protection [1, 9]: 19% | Number of mice D + 3 (survivors) [1, 9]: 28 | Number of mice D + 5 (survivors) [1, 9]: 17 | Number of mice D + 10 (survivors) [1, 9]: 11 | % Protection [1, 10]: 0% | Number of mice D + 3 (survivors) [1, 10]: 6 | Number of mice D + 5 (survivors) [1, 10]: 2 | Number of mice D + 10 (survivors) [1, 10]: 2 | Serum antibodies [2]: 3480 µg/mL | Cutaneous test diameter in mm [3]: 14.4 mm | Antibody titer [4]: 11

polymer of β-D-p.aminophenyl-glycoside of Mur-NAc-L-Ala-D-isoGln [Pol (PAP-MDP)]
% Protection [5, 11]: 41% | Number of mice D + 3 (survivors) [5, 11]: 14 | Number of mice D + 5 (survivors) [5, 11]: 10 | Number of mice D + 10 (survivors) [5, 11]: 9 | % Protection [5, 12]: 34% | Number of mice D + 3 (survivors) [5, 12]: 22 | Number of mice D + 5 (survivors) [5, 12]: 19 | Number of mice D + 10 (survivors) [5, 12]: 19 | anti-infectious activity with respect to Klebsiella pneumoniae (in words) ([5]; summary of Table 4): notable anti-infectious activity | % Protection ([6]; 10 μg): 29% | Number of mice D + 5 (survivors) ([6]; 10 μg): 10 | Number of mice D + 10 (survivors) ([6]; 10 μg): 6 | % Protection ([6]; 100 μg): 71% | Number of mice D + 5 (survivors) ([6]; 100 μg): 23 | Number of mice D + 10 (survivors) ([6]; 100 μg): 19 | lethal dose 50 [7]: higher than 100 μg | times less toxic than endotoxin extracted from E. coli [7]: 5000 times | anti-infectious activity with respect to Klebsiella pneumoniae (in words) [1]: anti-infectious | % Protection [1, 13]: 50% | Number of mice D + 3 (survivors) [1, 13]: 16 | Number of mice D + 5 (survivors) [1, 13]: 13 | Number of mice D + 10 (survivors) [1, 13]: 11 | % Protection [1, 14]: 81% | Number of mice D + 3 (survivors) [1, 14]: 16 | Number of mice D + 5 (survivors) [1, 14]: 16 | Number of mice D + 10 (survivors) [1, 14]: 16 | % Protection [1, 15]: 58% | Number of mice D + 3 (survivors) [1, 15]: 24 | Number of mice D + 5 (survivors) [1, 15]: 21 | Number of mice D + 10 (survivors) [1, 15]: 19 | % Protection [1, 9]: 72% | Number of mice D + 3 (survivors) [1, 9]: 24 | Number of mice D + 5 (survivors) [1, 9]: 24 | Number of mice D + 10 (survivors) [1, 9]: 22 | % Protection [1, 16]: 16% | Number of mice D + 3 (survivors) [1, 16]: 22 | Number of mice D + 5 (survivors) [1, 16]: 17 | Number of mice D + 10 (survivors) [1, 16]: 9 | % Protection [1, 10]: 75% | Number of mice D + 3 (survivors) [1, 10]: 15 | Number of mice D + 5 (survivors) [1, 10]: 14 | Number of mice D + 10 (survivors) [1, 10]: 14 | % Protection [1, 17]: 12% | Number of mice D + 3 (survivors) [1, 17]: 12 | Number of mice D + 5 (survivors) [1, 17]: 4 | Number of mice D + 10 (survivors) [1, 17]: 3 | active dose (anti-infectious activity) ([1]; as stated in the Limulus discussion): 10 μg per mouse | times less active than the LPS on Limulus test [8]: 500,000 times | concentration leading to a positive response (Limulus test) ([8]; 20 minutes at 37° C., firm gel): ~15000 ng/mL | Antibody titer [4]: 50

N^ε.N^ε' 'bis(N-acetyl-muramyl-L-alanyl-D-isoglutamine-L-lysine)-adipimidyl, dichlorohydrate [Adipimidyl-bis-MDP-Lys]
% Protection [1, 9]: 44% | Number of mice D + 3 (survivors) [1, 9]: 27 | Number of mice D + 5 (survivors) [1, 9]: 23 | Number of mice D + 10 (survivors) [1, 9]: 22 | Serum antibodies [2]: 6000 µg/mL | Cutaneous test diameter in mm [3]: 17 mm | Antibody titer [4]: 200
